# Source: patent US8691805B2, “Azetidinyl diamides as monoacylglycerol lipase inhibitors” (Janssen Pharmaceutica NV, priority 2009, dated 2014)
# Key:
# [1] = biological target: T1, MGL in rat brain homogenate (Rattus norvegicus, UniProt Q8R431); test: 2-AG accumulation assay in rat brain homogenate; assay type: biochemical; conditions: 2-AG accumulation as percent of vehicle; for Rat Brain 2AG % VehCntrl (%) @10 μM: compound 10 μM
# T1 construct: one g rat brain was homogenized; from tissue; host or cells: rat brain homogenate
# T1 sequence (Q8R431 1-303): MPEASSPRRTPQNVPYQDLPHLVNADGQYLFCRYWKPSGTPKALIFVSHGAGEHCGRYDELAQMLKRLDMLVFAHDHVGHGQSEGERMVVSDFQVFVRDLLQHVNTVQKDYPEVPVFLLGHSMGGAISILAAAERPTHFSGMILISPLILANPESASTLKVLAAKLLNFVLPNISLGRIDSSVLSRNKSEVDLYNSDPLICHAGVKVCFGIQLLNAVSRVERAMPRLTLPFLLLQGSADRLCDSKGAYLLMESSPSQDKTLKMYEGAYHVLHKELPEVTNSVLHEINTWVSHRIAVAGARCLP
# mutant MGL = biological target: T2, mutant MGL (Homo sapiens, UniProt Q99685, L169S/L176S); test: MGL ThermoFluor assay - mutant; conditions: read-out: MGL mutant ThermoFluor Kd, ThermoFluor thermal shift
# T2 sequence (Q99685 1-303 L169S/L176S): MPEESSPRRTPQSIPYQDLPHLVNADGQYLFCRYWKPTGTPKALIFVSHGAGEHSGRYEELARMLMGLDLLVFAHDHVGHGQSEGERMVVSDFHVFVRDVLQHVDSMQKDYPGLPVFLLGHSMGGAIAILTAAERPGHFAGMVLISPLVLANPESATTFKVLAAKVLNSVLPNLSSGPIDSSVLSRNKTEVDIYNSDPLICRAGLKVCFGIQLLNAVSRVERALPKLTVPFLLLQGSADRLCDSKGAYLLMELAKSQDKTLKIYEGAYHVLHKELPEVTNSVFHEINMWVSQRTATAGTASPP
# Protocol: The ThermoFluor (TF) assay is a 384-well plate-based binding assay that measures thermal stability of proteins^1,2. […] TF dye used in all experiments was 1,8-ANS (Invitrogen: A-47). Final TF assay conditions used for MGL studies were 0.07 mg/ml of mutant MGL, 100 μM ANS, 200 mM NaCl, 0.001% Tween-20 in 50 mM PIPES (pH=7.0).
# Screening compound plates contained 100% DMSO compound solutions at a single concentration. […] Columns 12 and 24 were used as DMSO reference and contained no compound. […] Following compound dispension, protein and dye solutions were added to achieve the final assay volume of 3 μL.
# Bar-coded assay plates were robotically loaded onto a thermostatically controlled PCR-type thermal block and then heated from 40 to 90° C. degrees at a ramp-rate of 1° C./min for all experiments. Fluorescence was measured by continuous illumination with UV light (Hamamatsu LC6), supplied via fiber optics and filtered through a band-pass filter (380-400 nm; >6 OD cutoff). Fluorescence emission of the entire 384-well plate was detected by measuring light intensity using a CCD camera (Sensys, Roper Scientific) filtered to detect 500±25 nm, resulting in simultaneous and independent readings of all 384 wells. […]
# [2] = test system: CFA-induced paw radiant heat hypersensitivity in rats; test: CFA-induced paw radiant heat hypersensitivity; assay type: in vivo; conditions: rat, 30 mg/kg p.o., HPβCD, group mean values, last time point 180 or 300 min
# Protocol: Each rat was placed in a test chamber on a warm glass surface and allowed to acclimate for approximately 10 min. A radiant thermal stimulus (beam of light) was then focused through the glass onto the plantar surface of each hind paw in turn. The thermal stimulus was automatically shut off by a photoelectric relay when the paw was moved or when the cut-off time was reached (20 sec for radiant heat at ˜5 amps). An initial (baseline) response latency to the thermal stimulus was recorded for each animal prior to the injection of complete Freund's adjuvant (CFA). 24 h following intraplantar CFA injection, the response latency of the animal to the thermal stimulus was then re-evaluated and compared to the animal's baseline response time. […] Post-compound treatment withdrawal latencies were assessed at fixed time intervals, typically 30, 60, 120, 180, and 300 min.
# The percent reversal (% R) of hypersensitivity was calculated in one of two different ways: 1) using group mean values or 2) using individual animal values. […]
# Method 1. For all compounds, the % R of hypersensitivity was calculated using the mean value for groups of animals at each time point according to the following formula: % reversal=[(group treatment response−group CFA response)/(group baseline response−group CFA response)]×100 Results are given for the maximum % reversal observed for each compound at any time point tested. […]
# [3] = test system: murine model of acute inflammation; conditions: Comelli et al. 2007; cited from earlier work
smiles,measurement,setting,value
O=C(c1nccs1)N1CCN(C2CN(C(=O)[C@@H]3C[C@H]3c3ccccc3Cl)C2)CC1 (racemic) [Cpd 642],Rat Brain 2AG % VehCntrl (%) @1 μM,[1]; compound 1 μM,170%
same,Kd,mutant MGL,499 nM
"O=C(c1ccc(-c2ccc(O)cc2)cc1)N1CC(N2CCN(C(=O)c3nccs3)CC2)C1 [Cpd 211, 4′-({3-[(1,3-Thiazol-2-ylcarbonyl)piperazin-1-yl]azetidin-1-yl}carbonyl)biphenyl-4-ol]",Rat Brain 2AG % VehCntrl (%) @10 μM,[1],725%
"COc1ccc(-c2ccc(C(=O)N3CC(N4CCN(C(=O)c5nccs5)CC4)C3)cc2)cc1C=O [Cpd 216, 4-Methoxy-4′-({3-[(1,3-thiazol-2-ylcarbonyl)piperazin-1-yl]azetidin-1-yl}carbonyl)biphenyl-3-carbaldehyde]",Rat Brain 2AG % VehCntrl (%) @10 μM,[1],625%
O=C(c1ccc(-c2cccc(C(F)(F)F)c2)c(Cl)c1)N1CC(N2CCN(C(=O)c3cscn3)CC2)C1 [Cpd 1102],Method 1: peak % reversal,[2],38%
"O=C(c1ccc2c(ccn2-c2ccc(C(F)(F)F)cc2)c1)N1CC(N2CCN(C(=O)c3cscn3)CC2)C1 [Cpd 1359, 5-({3-[4-(1,3-Thiazol-4-ylcarbonyl)piperazin-1-yl]azetidin-1-yl}carbonyl)-1-[4-(trifruoromethyl)phenyl]-1 H-indole]",Method 1: peak % reversal,[2],5.1%
O=C(Nc1cccc(-c2ccccc2)c1)OC1CCCCC1 [URB602],antinociceptive effect,[3],showed an antinociceptive effect
